Measurements published in PubChem BioAssay AID1963870 (Molecular Pharmacology Branch, DTP, NCI, 2024).

Test system: 292921-168-R-J2-PDC KRAS tumor spheroid viability
Experiment: Anticancer human tumor 292921-168-R-J2-PDC patient-derived pancreatic carcinoma cell line growth inhibition [KRAS2]
Details: spheroids with HUVEC and MSC; for IC50: curve of first compound; for viability, T/C: stronger effect = lower value
How it was run: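 Combination screen of spheroid viability in tumor-cell co-cultures with endothelial (HUVEC) and mesenchymal stem cell stroma. Each agent was tested in half-log dilutions, topping at clinical Cmax or at 10 microM without a known Cmax.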

[1] = second compound 0.1 µM, first compound 0.00316 µM
[2] = second compound 0.1 µM, first compound 0.01 µM
[3] = second compound 0.1 µM, first compound 0.0316 µM
[4] = second compound 0.1 µM, first compound 0.1 µM
[5] = second compound 0.316 µM, first compound 0.00316 µM
[6] = second compound 0.316 µM, first compound 0.01 µM
[7] = second compound 0.316 µM, first compound 0.0316 µM
[8] = second compound 0.316 µM, first compound 0.1 µM
[9] = second compound 1 µM, first compound 0.00316 µM
[10] = second compound 1 µM, first compound 0.01 µM
[11] = second compound 1 µM, first compound 0.0316 µM
[12] = second compound 1 µM, first compound 0.1 µM
[13] = second compound 3.16 µM, first compound 0.00316 µM
[14] = second compound 3.16 µM, first compound 0.01 µM
[15] = second compound 3.16 µM, first compound 0.0316 µM
[16] = second compound 3.16 µM, first compound 0.1 µM
[17] = second compound 10 µM, first compound 0.00316 µM
[18] = second compound 10 µM, first compound 0.01 µM
[19] = second compound 10 µM, first compound 0.0316 µM
[20] = second compound 10 µM, first compound 0.1 µM
[21] = second compound 0.1 µM, first compound 0.316 µM
[22] = second compound 0.1 µM, first compound 1 µM
[23] = second compound 0.316 µM, first compound 0.316 µM
[24] = second compound 0.316 µM, first compound 1 µM
[25] = second compound 1 µM, first compound 0.316 µM
[26] = second compound 1 µM, first compound 1 µM
[27] = second compound 3.16 µM, first compound 0.316 µM
[28] = second compound 3.16 µM, first compound 1 µM
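Note: drug exposure lasted seven days after spheroids formed for three days.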
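Throughout, for viability, T/C: percent of DMSO vehicle control viability which is 100%.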

Cn1ncnc1[C@H]1c2n[nH]c(=O)c3cc(F)cc(c23)N[C@@H]1c1ccc(F)cc1 + CNCc1ccccc1-c1csc(C(C)Nc2nc(C)nc3cc(OC)c(OC)cc23)c1
IC50 (second compound 0.1 µM): > 0.1 µM | IC50 (second compound 0.316 µM): > 0.1 µM | IC50 (second compound 1 µM): 0.024 µM | IC50 (second compound 3.16 µM): < 0.000316 µM | IC50 (second compound 10 µM): < 0.000316 µM | viability, T/C (second compound 0.1 µM, first compound 0.000316 µM): 87.7% | viability, T/C (second compound 0.1 µM, first compound 0.001 µM): 87.8% | viability, T/C [1]: 84.2% | viability, T/C [2]: 81.3% | viability, T/C [3]: 75.9% | viability, T/C [4]: 63.5% | viability, T/C (second compound 0.316 µM, first compound 0.000316 µM): 77.3% | viability, T/C (second compound 0.316 µM, first compound 0.001 µM): 84.3% | viability, T/C [5]: 79.9% | viability, T/C [6]: 69.2% | viability, T/C [7]: 65.5% | viability, T/C [8]: 56.9% | viability, T/C (second compound 1 µM, first compound 0.000316 µM): 57.3% | viability, T/C (second compound 1 µM, first compound 0.001 µM): 55.7% | viability, T/C [9]: 57.6% | viability, T/C [10]: 52.6% | viability, T/C [11]: 48.6% | viability, T/C [12]: 41.4% | viability, T/C (second compound 3.16 µM, first compound 0.000316 µM): 0.07% | viability, T/C (second compound 3.16 µM, first compound 0.001 µM): 0.08% | viability, T/C [13]: 0.08% | viability, T/C [14]: 0.07% | viability, T/C [15]: 0.08% | viability, T/C [16]: 0.13% | viability, T/C (second compound 10 µM, first compound 0.000316 µM): 0.08% | viability, T/C (second compound 10 µM, first compound 0.001 µM): 0.08% | viability, T/C [17]: 0.48% | viability, T/C [18]: 0.87% | viability, T/C [19]: 0.35% | viability, T/C [20]: 0.15%

CCN1CCN(Cc2ccc(Nc3ncc(F)c(-c4cc(F)c5nc(C)n(C(C)C)c5c4)n3)nc2)CC1 + CNCc1ccccc1-c1csc(C(C)Nc2nc(C)nc3cc(OC)c(OC)cc23)c1
IC50 (second compound 0.1 µM): 0.0198 µM | IC50 (second compound 0.316 µM): 0.0161 µM | IC50 (second compound 1 µM): 0.00444 µM | IC50 (second compound 3.16 µM): < 0.00316 µM | IC50 (second compound 10 µM): < 0.00316 µM | viability, T/C [1]: 76.5% | viability, T/C [2]: 60.9% | viability, T/C [3]: 42% | viability, T/C [4]: 30.9% | viability, T/C [21]: 24.8% | viability, T/C [22]: 19.1% | viability, T/C [5]: 73.2% | viability, T/C [6]: 57.4% | viability, T/C [7]: 37.1% | viability, T/C [8]: 31.8% | viability, T/C [23]: 23.6% | viability, T/C [24]: 12.3% | viability, T/C [9]: 54.3% | viability, T/C [10]: 42.6% | viability, T/C [11]: 28.6% | viability, T/C [12]: 22.3% | viability, T/C [25]: 21.3% | viability, T/C [26]: 0.5% | viability, T/C [13]: 0.12% | viability, T/C [14]: 0.07% | viability, T/C [15]: 0.04% | viability, T/C [16]: 0.05% | viability, T/C [27]: 0.1% | viability, T/C [28]: 0.1% | viability, T/C [17]: 0.11% | viability, T/C [18]: 0.11% | viability, T/C [19]: 0.08% | viability, T/C [20]: 0.08% | viability, T/C (second compound 10 µM, first compound 0.316 µM): 0.08% | viability, T/C (second compound 10 µM, first compound 1 µM): 0.13%

CC1OCC2(CCN(c3cnc(Sc4ccnc(N)c4Cl)c(N)n3)CC2)C1N (stereo not given) + C=CC(=O)N1CCN(c2nc(OCC3CCCN3C)nc3c2CCN(c2cccc4cccc(C)c24)C3)CC1CC#N
IC50 (second compound 0.0316 µM): 0.384 µM | IC50 (second compound 0.1 µM): 0.227 µM | IC50 (second compound 0.316 µM): 0.0946 µM | IC50 (second compound 1 µM): < 0.0316 µM | IC50 (second compound 3.16 µM): < 0.0316 µM | viability, T/C (second compound 0.0316 µM, first compound 0.0316 µM): 92.1% | viability, T/C (second compound 0.0316 µM, first compound 0.1 µM): 68% | viability, T/C (second compound 0.0316 µM, first compound 0.316 µM): 48.8% | viability, T/C (second compound 0.0316 µM, first compound 1 µM): 45.6% | viability, T/C (second compound 0.0316 µM, first compound 3.16 µM): 32.9% | viability, T/C (second compound 0.0316 µM, first compound 10 µM): 28.4% | viability, T/C [3]: 82.9% | viability, T/C [4]: 61.2% | viability, T/C [21]: 43.8% | viability, T/C [22]: 36.9% | viability, T/C (second compound 0.1 µM, first compound 3.16 µM): 37.6% | viability, T/C (second compound 0.1 µM, first compound 10 µM): 26.8% | viability, T/C [7]: 66.1% | viability, T/C [8]: 47.8% | viability, T/C [23]: 37.4% | viability, T/C [24]: 37.3% | viability, T/C (second compound 0.316 µM, first compound 3.16 µM): 27.5% | viability, T/C (second compound 0.316 µM, first compound 10 µM): 25.3% | viability, T/C [11]: 20.5% | viability, T/C [12]: 18.6% | viability, T/C [25]: 16.4% | viability, T/C [26]: 17.4% | viability, T/C (second compound 1 µM, first compound 3.16 µM): 16.1% | viability, T/C (second compound 1 µM, first compound 10 µM): 15.8% | viability, T/C [15]: 0.11% | viability, T/C [16]: 0.11% | viability, T/C [27]: 0.11% | viability, T/C [28]: 0.1% | viability, T/C (second compound 3.16 µM, first compound 3.16 µM): 0.11% | viability, T/C (second compound 3.16 µM, first compound 10 µM): 0.17%
